{"source": "the supplement of paper PMC10307832", "assay_in_all_cases": "relative viability (nuclei count vs DMSO), 5 days (fraction); higher = more cells survive", "key": {"[1]": {"system": "EMC-BAC-2", "in_short": "(§1)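 Relative viability equals treated-well nuclei counts divided by vehicle-well nuclei counts. Counts came from 4× images of lung cancer cell lines grown in 1536-well plates for 5 days after pin-tool dosing on the day after seeding. Dosing used one drug alone or a fixed anchor-drug dose plus five library-drug doses (not always all listed) in √10 steps, and values are medians of duplicate plates.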"}, "[2]": {"system": "NCI-H23", "in_short": "as §1"}, "[3]": {"system": "HARA", "in_short": "as §1"}, "[4]": {"system": "NCI-H322M", "in_short": "as §1"}, "[5]": {"system": "PC-3 [JPC-3]", "in_short": "as §1"}, "[6]": {"system": "NCI-H661", "in_short": "as §1"}, "[7]": {"system": "LCLC-97TM1", "in_short": "as §1"}, "[8]": {"system": "NCI-H1792", "in_short": "as §1"}, "[9]": {"system": "NCI-H1944", "in_short": "as §1"}, "[10]": {"system": "HCC-827", "in_short": "as §1"}, "[11]": {"system": "SK-LU-1", "in_short": "as §1"}, "[12]": {"system": "NCI-H441", "in_short": "as §1"}, "[13]": {"system": "NCI-H1915", "in_short": "as §1"}, "[14]": {"system": "NCI-H1793", "in_short": "as §1"}, "[15]": {"system": "H3255", "in_short": "as §1"}, "[16]": {"system": "HCC-15", "in_short": "as §1"}, "[17]": {"system": "NCI-H460", "in_short": "as §1"}, "[18]": {"system": "EKVX", "in_short": "as §1"}, "[19]": {"system": "LC-2-ad", "in_short": "as §1"}, "[20]": {"system": "LU99A", "in_short": "as §1"}, "[21]": {"system": "NCI-H1437", "in_short": "as §1"}, "[22]": {"system": "NCI-H2126", "in_short": "as §1"}}, "data": [{"smiles": "O=c1[nH]c2ccccc2n1C1CCN(CCCC(c2ccc(F)cc2)c2ccc(F)cc2)CC1", "note": "[Pimozide] + C[C@]1(O)C[C@@H](c2nc(-c3ccc4ccc(-c5ccccc5)nc4c3)c3c(N)nccn32)C1 [Linsitinib] (partner 1 µM)", "values": [{"measurement": "relative viability", "setting": "[1]; first compound 0.08 µM", "result": 0.768}, {"measurement": "relative viability", "setting": "[1]; first compound 0.253 µM", "result": 0.787}, {"measurement": "relative viability", "setting": "[1]; first compound 0.8 µM", "result": 0.828}, {"measurement": "relative viability", "setting": "[1]; first compound 2.53 µM", "result": 0.828}, {"measurement": "relative viability", "setting": "[1]; first compound 8 µM", "result": 0.749}, {"measurement": "relative viability", "setting": "[2]; first compound 0.08 µM", "result": 0.609}, {"measurement": "relative viability", "setting": "[2]; first compound 0.253 µM", "result": 0.577}, {"measurement": "relative viability", "setting": "[2]; first compound 0.8 µM", "result": 0.49}, {"measurement": "relative viability", "setting": "[2]; first compound 2.53 µM", "result": 0.553}, {"measurement": "relative viability", "setting": "[2]; first compound 8 µM", "result": 0.513}, {"measurement": "relative viability", "setting": "[3]; first compound 0.08 µM", "result": 0.944}, {"measurement": "relative viability", "setting": "[3]; first compound 0.253 µM", "result": 0.981}, {"measurement": "relative viability", "setting": "[3]; first compound 0.8 µM", "result": 0.823}, {"measurement": "relative viability", "setting": "[3]; first compound 2.53 µM", "result": 0.92}, {"measurement": "relative viability", "setting": "[3]; first compound 8 µM", "result": 0.748}, {"measurement": "relative viability", "setting": "[4]; first compound 0.253 µM", "result": 0.875}, {"measurement": "relative viability", "setting": "[4]; first compound 0.8 µM", "result": 0.79}, {"measurement": "relative viability", "setting": "[4]; first compound 2.53 µM", "result": 0.834}, {"measurement": "relative viability", "setting": "[4]; first compound 8 µM", "result": 0.971}, {"measurement": "relative viability", "setting": "[5]; first compound 0.253 µM", "result": 0.985}, {"measurement": "relative viability", "setting": "[5]; first compound 0.8 µM", "result": 0.896}, {"measurement": "relative viability", "setting": "[5]; first compound 2.53 µM", "result": 0.983}, {"measurement": "relative viability", "setting": "[5]; first compound 8 µM", "result": 0.883}, {"measurement": "relative viability", "setting": "[6]; first compound 0.08 µM", "result": 0.659}, {"measurement": "relative viability", "setting": "[6]; first compound 0.253 µM", "result": 0.422}, {"measurement": "relative viability", "setting": "[6]; first compound 0.8 µM", "result": 0.557}, {"measurement": "relative viability", "setting": "[6]; first compound 2.53 µM", "result": 0.513}, {"measurement": "relative viability", "setting": "[6]; first compound 8 µM", "result": 0.536}, {"measurement": "relative viability", "setting": "[7]; first compound 0.08 µM", "result": 0.179}, {"measurement": "relative viability", "setting": "[7]; first compound 0.253 µM", "result": 0.166}, {"measurement": "relative viability", "setting": "[7]; first compound 0.8 µM", "result": 0.171}, {"measurement": "relative viability", "setting": "[7]; first compound 2.53 µM", "result": 0.169}, {"measurement": "relative viability", "setting": "[7]; first compound 8 µM", "result": 0.146}, {"measurement": "relative viability", "setting": "[8]; first compound 0.08 µM", "result": 0.524}, {"measurement": "relative viability", "setting": "[8]; first compound 0.253 µM", "result": 0.495}, {"measurement": "relative viability", "setting": "[8]; first compound 0.8 µM", "result": 0.417}, {"measurement": "relative viability", "setting": "[8]; first compound 2.53 µM", "result": 0.444}, {"measurement": "relative viability", "setting": "[8]; first compound 8 µM", "result": 0.571}, {"measurement": "relative viability", "setting": "[9]; first compound 0.08 µM", "result": 1.02}, {"measurement": "relative viability", "setting": "[9]; first compound 0.253 µM", "result": 1.07}, {"measurement": "relative viability", "setting": "[9]; first compound 0.8 µM", "result": 1.05}, {"measurement": "relative viability", "setting": "[9]; first compound 2.53 µM", "result": 1.3}, {"measurement": "relative viability", "setting": "[9]; first compound 8 µM", "result": 1.22}, {"measurement": "relative viability", "setting": "[10]; first compound 0.253 µM", "result": 0.986}, {"measurement": "relative viability", "setting": "[10]; first compound 0.8 µM", "result": 0.915}, {"measurement": "relative viability", "setting": "[10]; first compound 2.53 µM", "result": 0.944}, {"measurement": "relative viability", "setting": "[10]; first compound 8 µM", "result": 0.939}, {"measurement": "relative viability", "setting": "[11]; first compound 0.08 µM", "result": 1.11}, {"measurement": "relative viability", "setting": "[11]; first compound 0.253 µM", "result": 1.12}, {"measurement": "relative viability", "setting": "[11]; first compound 0.8 µM", "result": 0.902}, {"measurement": "relative viability", "setting": "[11]; first compound 2.53 µM", "result": 0.732}, {"measurement": "relative viability", "setting": "[11]; first compound 8 µM", "result": 0.851}, {"measurement": "relative viability", "setting": "[12]; first compound 0.08 µM", "result": 0.496}, {"measurement": "relative viability", "setting": "[12]; first compound 0.253 µM", "result": 0.53}, {"measurement": "relative viability", "setting": "[12]; first compound 0.8 µM", "result": 0.752}, {"measurement": "relative viability", "setting": "[12]; first compound 2.53 µM", "result": 0.483}, {"measurement": "relative viability", "setting": "[12]; first compound 8 µM", "result": 0.389}, {"measurement": "relative viability", "setting": "[13]; first compound 0.08 µM", "result": 1.09}, {"measurement": "relative viability", "setting": "[13]; first compound 0.253 µM", "result": 1.06}, {"measurement": "relative viability", "setting": "[13]; first compound 0.8 µM", "result": 0.921}, {"measurement": "relative viability", "setting": "[13]; first compound 2.53 µM", "result": 1.09}, {"measurement": "relative viability", "setting": "[13]; first compound 8 µM", "result": 1.1}, {"measurement": "relative viability", "setting": "[14]; first compound 0.08 µM", "result": 0.871}, {"measurement": "relative viability", "setting": "[14]; first compound 0.253 µM", "result": 0.612}, {"measurement": "relative viability", "setting": "[14]; first compound 0.8 µM", "result": 0.861}, {"measurement": "relative viability", "setting": "[14]; first compound 2.53 µM", "result": 0.88}, {"measurement": "relative viability", "setting": "[14]; first compound 8 µM", "result": 0.831}, {"measurement": "relative viability", "setting": "[15]; first compound 0.253 µM", "result": 0.905}, {"measurement": "relative viability", "setting": "[15]; first compound 0.8 µM", "result": 0.96}, {"measurement": "relative viability", "setting": "[15]; first compound 2.53 µM", "result": 0.959}, {"measurement": "relative viability", "setting": "[15]; first compound 8 µM", "result": 0.903}, {"measurement": "relative viability", "setting": "[16]; first compound 0.08 µM", "result": 0.91}, {"measurement": "relative viability", "setting": "[16]; first compound 0.253 µM", "result": 0.911}, {"measurement": "relative viability", "setting": "[16]; first compound 0.8 µM", "result": 0.847}, {"measurement": "relative viability", "setting": "[16]; first compound 2.53 µM", "result": 0.744}, {"measurement": "relative viability", "setting": "[16]; first compound 8 µM", "result": 0.796}, {"measurement": "relative viability", "setting": "[17]; first compound 0.08 µM", "result": 0.964}, {"measurement": "relative viability", "setting": "[17]; first compound 0.253 µM", "result": 0.725}, {"measurement": "relative viability", "setting": "[17]; first compound 0.8 µM", "result": 0.707}, {"measurement": "relative viability", "setting": "[17]; first compound 2.53 µM", "result": 0.727}, {"measurement": "relative viability", "setting": "[17]; first compound 8 µM", "result": 0.649}, {"measurement": "relative viability", "setting": "[18]; first compound 0.253 µM", "result": 0.837}, {"measurement": "relative viability", "setting": "[18]; first compound 0.8 µM", "result": 0.901}, {"measurement": "relative viability", "setting": "[18]; first compound 2.53 µM", "result": 0.969}, {"measurement": "relative viability", "setting": "[18]; first compound 8 µM", "result": 0.953}, {"measurement": "relative viability", "setting": "[19]; first compound 0.08 µM", "result": 0.818}, {"measurement": "relative viability", "setting": "[19]; first compound 0.253 µM", "result": 0.819}, {"measurement": "relative viability", "setting": "[19]; first compound 0.8 µM", "result": 0.797}, {"measurement": "relative viability", "setting": "[19]; first compound 2.53 µM", "result": 0.891}, {"measurement": "relative viability", "setting": "[19]; first compound 8 µM", "result": 0.746}, {"measurement": "relative viability", "setting": "[20]; first compound 0.08 µM", "result": 0.544}, {"measurement": "relative viability", "setting": "[20]; first compound 0.253 µM", "result": 0.409}, {"measurement": "relative viability", "setting": "[20]; first compound 0.8 µM", "result": 0.514}, {"measurement": "relative viability", "setting": "[20]; first compound 2.53 µM", "result": 0.596}, {"measurement": "relative viability", "setting": "[20]; first compound 8 µM", "result": 0.504}, {"measurement": "relative viability", "setting": "[21]; first compound 0.08 µM", "result": 1.09}, {"measurement": "relative viability", "setting": "[21]; first compound 0.253 µM", "result": 1.11}, {"measurement": "relative viability", "setting": "[21]; first compound 0.8 µM", "result": 0.932}, {"measurement": "relative viability", "setting": "[21]; first compound 2.53 µM", "result": 0.899}, {"measurement": "relative viability", "setting": "[21]; first compound 8 µM", "result": 0.893}, {"measurement": "relative viability", "setting": "[22]; first compound 0.08 µM", "result": 0.747}, {"measurement": "relative viability", "setting": "[22]; first compound 0.253 µM", "result": 0.662}, {"measurement": "relative viability", "setting": "[22]; first compound 0.8 µM", "result": 0.713}, {"measurement": "relative viability", "setting": "[22]; first compound 2.53 µM", "result": 0.74}, {"measurement": "relative viability", "setting": "[22]; first compound 8 µM", "result": 0.774}]}]}
